US11845809B2, “Maleate of SCY-635 and uses thereof in medicine” (priority 2018, dated 2023)
Values after ≈ are worked out from the molar mass of the structure shown. Read-outs that look alike come from different tables or passages of the source.

Experiments:
[1] = type: physicochemical; settings: for Final pH of supernatant: FaSSIF, RT
Excerpt: (§1) Crystalline maleate was recommended as a leading salt and further evaluated by kinetic solubility and physicochemical stability.

[2] = type: physicochemical; settings: for Final pH of supernatant: water, RT
Excerpt: as §1

[3] = One-week physicochemical stability evaluation (HPLC purity); settings: for Purity (area%) / Purity of initial (%): open, one week
Procedure: Physicochemical stability of crystalline maleate was evaluated under 25° C./60% RH-open and 40° C./75% RH-open for one week.

P-glycoprotein = P-glycoprotein (Homo sapiens, UniProt P08183); settings: cited from earlier work
stimulated Jurkat cells = settings: cited from earlier work
cytochrome P450 2B6 = settings: cited from earlier work
[4] = test system: stimulated human peripheral blood mononuclear cells; settings: cited from earlier work
cyclophilin A = cyclophilin A (Homo sapiens, UniProt P62937); settings: cited from earlier work
hepatitis C virus (HCV) [5] = settings: cited from earlier work
[6] = in vivo, cited from earlier work
cytochrome P450 1A2 = settings: cited from earlier work
hepatitis C virus (HCV) [7] = settings: cited from earlier work; remark: listed apart in the source
calcineurin = settings: at concentrations up to 2 μM; cited from earlier work
cytochrome P450 3A4 = settings: cited from earlier work
physchem = type: physicochemical; settings: fassif, thermodynamic from solid, Solubility (S)

Sequence of P-glycoprotein (P08183 whole entry): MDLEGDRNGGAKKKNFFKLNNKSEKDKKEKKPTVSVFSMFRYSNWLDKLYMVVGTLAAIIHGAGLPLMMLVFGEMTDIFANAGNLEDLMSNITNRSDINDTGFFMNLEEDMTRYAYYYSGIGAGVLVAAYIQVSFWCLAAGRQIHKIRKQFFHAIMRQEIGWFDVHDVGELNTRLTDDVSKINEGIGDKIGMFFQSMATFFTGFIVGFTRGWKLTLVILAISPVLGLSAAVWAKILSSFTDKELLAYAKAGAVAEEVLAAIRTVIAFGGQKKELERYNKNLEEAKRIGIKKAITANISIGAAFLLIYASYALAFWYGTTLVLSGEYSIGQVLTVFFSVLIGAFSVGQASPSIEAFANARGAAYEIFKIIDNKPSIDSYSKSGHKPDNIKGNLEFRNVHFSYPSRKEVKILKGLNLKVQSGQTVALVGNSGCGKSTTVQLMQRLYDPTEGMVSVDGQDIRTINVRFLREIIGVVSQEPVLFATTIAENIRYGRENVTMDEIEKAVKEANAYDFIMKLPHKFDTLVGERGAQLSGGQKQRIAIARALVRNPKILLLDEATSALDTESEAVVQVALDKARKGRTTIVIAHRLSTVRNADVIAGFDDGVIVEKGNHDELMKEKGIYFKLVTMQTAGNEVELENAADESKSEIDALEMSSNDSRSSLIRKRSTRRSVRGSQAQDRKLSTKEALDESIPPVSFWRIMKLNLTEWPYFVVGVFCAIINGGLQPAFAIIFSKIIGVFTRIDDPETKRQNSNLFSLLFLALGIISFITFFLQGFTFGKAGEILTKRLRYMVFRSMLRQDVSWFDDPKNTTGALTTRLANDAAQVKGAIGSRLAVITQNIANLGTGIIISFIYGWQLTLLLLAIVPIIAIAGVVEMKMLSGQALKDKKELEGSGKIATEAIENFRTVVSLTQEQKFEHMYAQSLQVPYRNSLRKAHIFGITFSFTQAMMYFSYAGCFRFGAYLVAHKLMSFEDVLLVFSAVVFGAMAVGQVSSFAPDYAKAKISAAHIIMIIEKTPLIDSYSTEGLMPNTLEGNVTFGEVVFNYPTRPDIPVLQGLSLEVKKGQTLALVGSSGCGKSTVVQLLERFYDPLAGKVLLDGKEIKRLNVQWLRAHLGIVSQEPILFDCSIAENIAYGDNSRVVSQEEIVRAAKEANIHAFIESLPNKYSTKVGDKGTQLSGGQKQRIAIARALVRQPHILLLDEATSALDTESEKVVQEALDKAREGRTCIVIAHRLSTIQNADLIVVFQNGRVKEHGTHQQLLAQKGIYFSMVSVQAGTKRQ
Sequence of cyclophilin A (P62937 whole entry, species assumed): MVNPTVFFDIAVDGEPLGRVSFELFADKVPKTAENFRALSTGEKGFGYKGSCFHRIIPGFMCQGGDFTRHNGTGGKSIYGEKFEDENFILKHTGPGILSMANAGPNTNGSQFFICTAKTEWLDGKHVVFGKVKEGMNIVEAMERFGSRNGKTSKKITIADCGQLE

C/C=C/C[C@@H](C)[C@@H](O)[C@H]1C(=O)N[C@@H](CC)C(=O)N(C)[C@H](SCCN(C)C)C(=O)N(C)[C@@H](CC(C)(C)O)C(=O)N[C@@H](C(C)C)C(=O)N(C)[C@@H](CC(C)C)C(=O)N[C@@H](C)C(=O)N[C@H](C)C(=O)N(C)[C@@H](CC(C)C)C(=O)N(C)[C@@H](CC(C)C)C(=O)N(C)[C@@H](C(C)C)C(=O)N1C [Freebase amorphous]
Final pH of supernatant ([1]; 2 hrs): 6.9 | Final pH of supernatant ([1]; 4 hrs): 6.9 | Final pH of supernatant ([1]; 6 hrs): 7.0 | Final pH of supernatant ([2]; 2 hrs): 4.9 | Final pH of supernatant ([2]; 4 hrs): 4.7 | Final pH of supernatant ([2]; 6 hrs): 6.2

Maleate
Solubility compared with amorphous and crystalline freebase [1]: significant solubility improvement | Final pH of supernatant ([1]; 6 hrs): 6.0 | Solubility compared with amorphous and crystalline freebase [2]: significant solubility improvement | Final pH of supernatant ([2]; 6 hrs): 4.9 | Purity (area%) ([3]; 25° C./60% RH): 100.0 area% | Purity of initial (%) ([3]; 25° C./60% RH): 100.0% | Purity (area%) ([3]; 40° C./75% RH): 100.0 area% | Purity of initial (%) ([3]; 40° C./75% RH): 100.0% | Chemical stability ([3]; both 25° C./60% RH and 40° C./75% RH, at least one week): good chemical stability

C/C=C/C[C@@H](C)[C@@H](O)[C@H]1C(=O)N[C@@H](CC)C(=O)N(C)[C@H](SCCN(C)C)C(=O)N(C)[C@@H](CC(C)(C)O)C(=O)N[C@@H](C(C)C)C(=O)N(C)[C@@H](CC(C)C)C(=O)N[C@@H](C)C(=O)N[C@H](C)C(=O)N(C)[C@@H](CC(C)C)C(=O)N(C)[C@@H](CC(C)C)C(=O)N(C)[C@@H](C(C)C)C(=O)N1C [SCY-635, (3S,6S,9S,12R,15S,18S,21S,24S,27R,30S,33S)-27-((2-(dimethylamino)ethyl)thio)-30-ethyl-33-((1R,2R,E)-1-hydroxy-2-methylhex-4-en-1-yl)-24-(2-hydroxy-2-methylpropyl)-6,9,18-triisobutyl-3,21-diisopropyl-1,4,7,10,12,15,19,25,28-nonamethyl-1,4,7,10,13,16,19,22,25,28,31-undecaazacyclotritriacontan-2,5,8,11,14,17,20,23,26,29,32-undecaone]
P-glycoprotein inhibition (P-glycoprotein): weak inhibitor | P-glycoprotein substrate (P-glycoprotein): poor substrate | Inhibition of interleukin-2 secretion compared with cyclosporine (stimulated Jurkat cells): weaker inhibitor | Induction of cytochrome P450 2B6 (cytochrome P450 2B6): did not induce | Inhibition of interleukin-2 secretion compared with cyclosporine [4]: weaker inhibitor | Inhibition of peptidyl prolyl isomerase activity of cyclophilin A (cyclophilin A): at nanomolar concentrations | Suppression of HCV replication in vitro (hepatitis C virus (HCV) [5]): potent suppression | Blood and liver concentrations of parent drug versus replicon 50% effective dose ([6]; po): exceeded the 50% effective dose | Oral bioavailability [6]: orally bioavailable | Induction of cytochrome P450 1A2 (cytochrome P450 1A2): did not induce | Antiviral activity in combination (hepatitis C virus (HCV) [7]; with alpha interferon 2b): synergistic antiviral activity | Antiviral activity in combination (hepatitis C virus (HCV) [7]; with ribavirin): additive antiviral activity | Inhibition of calcineurin phosphatase activity (calcineurin): no detectable inhibition | Induction of cytochrome P450 3A4 (cytochrome P450 3A4): did not induce

C/C=C/C[C@@H](C)[C@@H](O)[C@H]1C(=O)N[C@@H](CC)C(=O)N(C)[C@H](SCCN(C)C)C(=O)N(C)[C@@H](CC(C)(C)O)C(=O)N[C@@H](C(C)C)C(=O)N(C)[C@@H](CC(C)C)C(=O)N[C@@H](C)C(=O)N[C@H](C)C(=O)N(C)[C@@H](CC(C)C)C(=O)N(C)[C@@H](CC(C)C)C(=O)N(C)[C@@H](C(C)C)C(=O)N1C [Freebase Type A]
Final pH of supernatant ([1]; 2 hrs): 6.8 | Final pH of supernatant ([1]; 4 hrs): 6.8 | Final pH of supernatant ([1]; 6 hrs): 7.0 | Solubility (S) ([2]; 2 h): 100 µg/mL (≈ 75.7 µM) | Solubility (S) ([2]; 4 h): 100 µg/mL (≈ 75.7 µM) | Solubility (S) ([2]; 6 h): 300 µg/mL (≈ 227 µM) | Final pH of supernatant ([2]; 2 hrs): 6.7 | Final pH of supernatant ([2]; 4 hrs): 6.5 | Final pH of supernatant ([2]; 6 hrs): 6.6 | solubility at 2 h (physchem): 3700 µg/mL (≈ 2800 µM) | solubility at 4 h (physchem): 4700 µg/mL (≈ 3560 µM) | solubility at 6 h (physchem): 5600 µg/mL (≈ 4240 µM)
